Measurements: patent US11376247B2, “Tyrosine kinase inhibitors regenerate non-cancerous tissue after cancer therapy” (THE REGENTS OF THE UNIVERSITY OF COLORADO, A BODY CORPORATE, priority 2017, dated 2022)

How the values were obtained:
[1] = test system: salivary gland function; assay: Saliva production in mice after single dose head and neck IR; format: in vivo
Description: The star indicates time of IR treatment. Three TKI dosing regimens were used, where times of delivery is indicated by the filled circles. Mice were treated with the specific TKI 1 hour prior to delivery of IR (pre), 1 hour prior and 3 hours post IR (pre/post), or 3 and 6 hours post (post/post). Saliva production was assayed prior to IR (day 0) and at 60 days after IR as described in Examples. […] Saliva was collected […]. as described in Examples. Salivary production (saliva weight/animal weight) for each cohort of mice was normalized against the saliva production for vehicle treated mice to generate the data shown.
(§1) The star indicates time of IR treatment; while TKI delivery is indicated by the filled circles and arrows indicate time of saliva collection. Mice were dosed 1 hour prior and 3 hours post IR (pre/post), or pre/post plus twice a week for the duration of the experiment. Saliva production was assayed prior to IR (day 0) and at 30, 60, 90, 120 and 150 days after IR. Mice received vehicle alone, 15 Gy IR plus vehicle, or IR plus dasatinib as indicated. Saliva production (saliva weight/animal weight) for each cohort of mice was normalized against the production for vehicle-treated mice to generate the data shown in FIG. 3B. […] Salivary glands from mice in each group (n=2) were removed, formalin fixed and paraffin embedded. Immunohistochemistry for AQPN5 and H&E staining was performed on salivary glands from each mouse. […] Images were captured using an Olympus BX51 scope and Olympus DP72 camera with a 20× objective. Solid arrows indicate acinar cells while dashed arrows mark salivary gland ducts.
The schematic in FIG. 2A depicts the 3 dosing regimens used for the experiments in FIG. 2.
(§2) C57Bl/6 and athymic nude female mice were purchased from Jackson Laboratories (Bar Harbor, Me., USA). For single dose IR, mice were anesthetized by intraperitoneal (i.p.) injection of […] Avertin (Sigma), immobilized within a 50-mL conical tube, and a single dose of IR (10 or 15 Gy) was delivered to the head and neck using a Caesium-137 source. For fractionated IR, mice received 5 fractions of 6 Gy (tumor study) or 4 Gy (saliva production) on 5 consecutive days.
Saliva was collected immediately following i.p. injection of 0.1 mg/kg carbachol (Sigma) in saline (0.9% NaCl). Whole saliva was collected for 3 mins from the lower cheek pouch using a suction device and expressed as mg (saliva)/g (mouse weight).

[2] = test system: SMG acinar cells; assay: Salivary gland histology (H&E, AQPN5 immunohistochemistry) 150 days after IR; format: in vivo, mice; details: 15 Gy IR, continuous dasatinib
Description: as §1, with “indicated.” for “indicated. Saliva production (saliva weight/animal weight) for each cohort of mice was normalized against the production for vehicle-treated mice to generate the data shown in FIG. 3B.”, “Solid arrows indicate acinar cells while dashed arrows mark salivary gland ducts.” left out
For tissue analysis, salivary glands were formalin fixed, paraffin embedded, and sectioned at […]. Tissue sections were stained with haematoxylin-eosin (H&E) and aquaporin 5 (AQPN5) was detected by immunohistochemistry (Abcam). Stained slides were archived and analyzed using the Aperio Digital Pathology System and ImageScope software (Leica Biosystems). For AQPN5, the number of positive stained pixels was quantified using the Positive Pixel algorithm in three representative sections, cut 50 micrometers apart, of both full submandibular salivary glands from two mice per treatment group, for a total of […] per group. […]

[3] = test system: ParC5 cells; assay: IR-induced apoptosis, caspase-3/7 activity in salivary gland acinar cells; format: cell-based, rat; details: TKI pretreatment 30 min, 10 Gy IR, 18 hours after IR
Description: Whole cell lysates were resolved with SDS-PAGE and analyzed using phospho-specific antibodies that recognize PKC-delta pY64, pY155 or pT505. Membranes were stripped and probed for total PKC-delta and actin to determine loading. Each experiment was done a minimum of three times; representative immunoblots are shown. […] Caspase-3/7 activity was assayed as described in the Examples. Data shown is the average of triplicate samples from a representative experiment plus and minus the S.D. (error bars). The experiment was repeated three times, *=p<0.05 for caspase activity compared to cells expressing shScr. An immunoblot showing depletion of PKC-delta is shown below. […] The data are the average of triplicate measurements from a representative experiment plus the S.D. (error bars). Each experiment was repeated three times. *=p<0.05 for caspase activity compared to cells treated with IR alone. […] Inhibition of c-Src and c-Abl was determined by probing for their respective activation sites pY416 (c-Src) and pY412 (c-Abl). […]
Phosphorylation of PKC-delta at T505 is seen within 1 hour after IR, while phosphorylation at Y64 and Y155 are detectable by 2 hours post IR and continue to increase until at least 6 hours (FIG. 1A). […] Active caspase-3/7 was detected using the Caspase-3/7 Cellular Activity Assay Kit PLUS (Biomol, Farmingdale, N.Y.) according to the manufacturer's instructions.

[4] = test system: PKC-delta, c-Src, c-Abl in ParC5 cells; assay: Immunoblot for PKC-delta pY64/pY155, c-Src pY416 and c-Abl pY412 after H2O2; format: cell-based, rat; details: TKI 30 min, then 5 mM H2O2 30 min
[5] = test system: FaDu derived xenograft tumors; assay: FaDu flank xenograft tumor growth with fractionated IR; format: in vivo, nude mice
Description: as §2

[6] = test system: PKC-delta; details: in response to DNA damaging agents; previously shown; cited from earlier work

SMILES | saliva production, % of vehicle treated controls ([1]; 15 Gy IR, dasatinib 20 mg/kg pre/post, 60 days post IR (FIG. 2B)) [%] | saliva production, % of vehicle treated mice ([1]; 15 Gy IR, dasatinib pre/post only, 30 and 60 days (FIG. 3B)) [%] | saliva production, % of vehicle treated controls ([1]; 15 Gy IR, dasatinib pre/post plus twice a week (continual), 90 days) [%] | saliva production, % of vehicle treated controls ([1]; 15 Gy IR, dasatinib pre/post plus twice a week (continual), 120 days) [%] | saliva production, % of vehicle treated controls ([1]; 15 Gy IR, dasatinib pre/post plus twice a week (continual), 150 days) [%] | protection of salivary gland function compared to vehicle only treated mice ([1]; IR plus dasatinib, all 3 protocols (pre, pre/post, post/post), 60 days (FIG. 2D)) [%] | AQPN5 staining in the SMGs, % of vehicle treated mice [2] [%] | IR-induced apoptosis (caspase-3/7 activity) [3] | inhibition of Y155 versus Y64 phosphorylation of PKC-delta [4] | inhibition of c-Abl versus c-Src [4] | saliva production, % of vehicle control ([1]; IR plus imatinib, one dose prior to IR (pre), 60 days (FIG. 2E)) [%] | tumor growth, TKI added to fractionated IR ([5]; 5 x 6 Gy IR, dasatinib 20 mg/kg or imatinib 50 mg/kg pre/post each fraction) | tumor growth, TKI alone compared to respective controls ([5]; dasatinib 20 mg/kg or imatinib 50 mg/kg alone, no IR) | phosphorylation of PKC-delta at Y64 and Y155, nuclear translocation of PKC-delta, and apoptosis [6]
Cc1nc(Nc2ncc(C(=O)Nc3c(C)cccc3Cl)s2)cc(N2CCN(CCO)CC2)n1 [dasatinib] | 65 | 70 | 74 | 69 | 82 | ~100 | 93 | – | – | – | – | – | – | –
Cc1ccc(NC(=O)c2ccc(CN3CCN(C)CC3)cc2)cc1Nc1nccc(-c2cccnc2)n1 [imatinib] | – | – | – | – | – | – | – | inhibits IR-induced apoptosis | slightly more potent inhibitors of Y155 phosphorylation than Y64 phosphorylation | more potent inhibition of c-Abl than c-Src | 63 | no effect on tumor growth | trend towards reduced tumor growth | block
